Earlier results, collected in patent US8674081B2, “Methods and compositions to elicit multivalent immune responses against dominant and subdominant epitopes, expressed on cancer cells and tumor stroma” (Mankind Corporation, priority 2005, dated 2014).

Tests used:
human PBMC = details: stated as 'has been shown'
[1] = stated as 'has been shown'
MHC class I = details: stated as 'has been shown'

MHC class I binding relative to native epitope (MHC class I) | Sequence | CTL / anti-tumor immune response, in vitro immunization of human PBMC (human PBMC) | CTL / anti-tumor immune response, in vivo immunization in mice [1]
– | SLLQHLIGL [PRAME425-433] | strong anti-tumor immune responses | strong anti-tumor immune responses
elevated | GLPSIPVHPV [PSMA288-297 I297V] | significant CTL responses | significant CTL responses
– | GLPSIPVHPI (listed as Homo sapiens) [PSMA288-297] | significant CTL responses | significant CTL responses
